Results on one compound are retold here after patent publication US10213432B2, “Dosage regimen for a PI-3 kinase inhibitor” (NOVARTIS AG, priority 2012, dated 2019).

Assay [1] concerns Hormone Receptor Positive (+) metastatic breast cancer. Format: in vivo, human. The note with it: in combination with letrozole 2.5 mg/day per oral. The protocol:
An open-label, randomized multi-institution clinical study using the hydrochloride salt of Compound A alone and in combination with the therapeutic agent letrozole for the treatment of post-menopausal patients with Hormone Receptor Positive (+) metastatic breast cancer is investigated. Patients are evaluated for safety profile/tolerability and preliminary antitumor effect.
Patients are included in the study if they meet the following criteria: at least 18 years of age, ECOG performance status 0-1, suffering from clinical stage 1V invasive mammary carcinoma (ER-positive, or PR-positive) by immunohistochemistry, life expectancy equal to or greater than 6 months, adequate hematologic, hepatic and renal function (ANC≥1500/mm^3, platelet count≥100,000 mm^3, HgB≥9 g/dL, creatine≤1.5×upper limits of normal, bilirubin≤1.5×upper limits of normal, SGOT, SGPT≤2.5×upper limits of normal if no liver metasis present or SGOT, SGPT alkaline phosphatase≤5×upper limits of normal if liver metasis present, capable of swallowing and retaining oral medication, disease free of prior invasive cancers for >5 years (exception of basal or squamous cancer of skin or cervical carcinoma in situ). Patients may receive concurrent radiation therapy to painful bone metastases or areas of impending bone fracture as long as radiation therapy is completed≤2 weeks prior to study and recovered from toxicity (≤grade 1) induced by this radiation treatment. Post-menopausal female subjects are defined prior to protocol enrollment by any of the following: Subjects at least 55 years of age; Subjects under 55 years of age and amenorrheic for at least 12 months or follicle-stimulating hormone (FSH) values[…] and estradiol levels≤20 IU/L; prior bilateral oophorectomy; prior radiation castration with amenorrhea for at least 6 months; current use of an LHRH agonist for more than 12 months.
Patients with the following mood disorders as judged by investigator or psychiatrist are also excluded: medically documented history of or active major depressive episode; bipolar disorder (I or II), obsessive-compulsive disorder, schizophrenia, a history of suicidal attempt or ideation, or homicidal ideation (immediate risk of doing harm to others); or ≥CTCAE grade 3 anxiety.
In the first stage of the study, safety and tolerability of the hydrochloride salt of Compound A is evaluated in combination with the therapeutic agent letrozole in post-menopausal patients with Hormone Receptor Positive (+) metastatic breast cancer is investigated. The maximum tolerated dose of the hydrochloride salt of Compound A […] is determined at dosages of 100 mg per oral daily, 80 mg per oral daily, and 50 mg per oral daily, in combination with letrozole administered at 2.5 mg/day per oral.
In the second stage of the study, the antitumor effect of the hydrochloride salt of Compound A in combination with letrozole for the treatment of post-menopausal patients with Hormone Receptor Positive (+) metastatic breast cancer is investigated. Patients are administered the hydrochloride salt of Compound A and letrozole at a daily dosage identified to be with in the MTD in the first stage (Arm A).
In one additional experimental arm (Arm C), Patients are administered a daily dosage of the hydrochloride salt of Compound A in the amount of 60, 80 or 100 mg per oral on Monday through Fridays only each week in combination with 2.5 mg/day per oral letrozole.
Secondary outcome for the second stage is progression free survival and response.
Following the above experiment, 51 patients were accrued, 49 progressed after aromatase inhibitor therapy. Median age was 56 years and 95% of patients ad bone metastasis and 70% visceral metastases.

Another assay relates to solid tumors. The note with it: humans; Bendell et al., J. Clin. Oncology 2012; cited from earlier work.
[2] abbreviates: Arm C (31): 60, 80 or 100 mg per oral Monday through Fridays only.

Where two headings read alike, the source gives them in different places.

In the case of `Nc1cc(C(F)(F)F)c(-c2cc(N3CCOCC3)nc(N3CCOCC3)n2)cn1` [Compound A, 5-(2,6-di-morpholin-4-yl-pyrimidin-4-yl)-4-trifluoromethyl-pyridin-2-ylamine], in assay [1] (Arm A (20): daily dosing), the “Median TTP” value is 4 (2-11) months, the “Patient outcomes: CR” value amounted to 1, the “Patient outcomes: PD” value came out at 7 and the “Patient outcomes: PR” value was 1. The “Patient outcomes: SD” value in assay [1] (Arm A (20): daily dosing) is given as 9. Besides, in assay [1] (setting [2]), the “Median TTP” value is “Not reached”, the “Patient outcomes: CR” value is 0, the “Patient outcomes: PD” value was 8 and the “Patient outcomes: PR” value came to 0. For the same compound, in assay [1] (setting [2]), the “Patient outcomes: SD” value is given as 4. Moreover, the “efficacy in the treatment of solid tumors” value in the assay on solid tumors was “has been demonstrated in humans”.
